Laboratory results: ChEMBL document CHEMBL2163249, “Exploration of natural compounds as sources of new bifunctional scaffolds targeting cholinesterases and beta amyloid aggregation: the case of chelerythrine” (Bioorg Med Chem, 2012)
Starred links: 1 amine or outer side, 2 acyl side, 3 side chain; linkers in the order of their positions; H or OH if unused. Positions of bridges follow the written chain, without caps; N, C: chain ends. Non-standard residues stand in square brackets, D forms with d. Residues, ends and D or L forms follow the SMILES beside them. Chains are numbered I, II in the order given. Actinocin(9to1) = Cc1c2oc3c(C)ccc(C(=O)[*:1])c3nc-2c(C(=O)[*:2])c(N)c1=O; NMeV = CN[C@H](C(=O)O)C(C)C; Sar = CNCC(=O)O

How the values were obtained:
[1] = target: Acetylcholinesterase (Electrophorus electricus) (UniProt O42275); settings: at 2 mg/mL
Description: Inhibition of electric eel AChE at 2 mg/ml by Ellman's method

[2] = target: Cholinesterase (Equus caballus) (UniProt P81908); settings: at 2 mg/mL
Sequence of Cholinesterase (Equus caballus) (P81908 whole entry): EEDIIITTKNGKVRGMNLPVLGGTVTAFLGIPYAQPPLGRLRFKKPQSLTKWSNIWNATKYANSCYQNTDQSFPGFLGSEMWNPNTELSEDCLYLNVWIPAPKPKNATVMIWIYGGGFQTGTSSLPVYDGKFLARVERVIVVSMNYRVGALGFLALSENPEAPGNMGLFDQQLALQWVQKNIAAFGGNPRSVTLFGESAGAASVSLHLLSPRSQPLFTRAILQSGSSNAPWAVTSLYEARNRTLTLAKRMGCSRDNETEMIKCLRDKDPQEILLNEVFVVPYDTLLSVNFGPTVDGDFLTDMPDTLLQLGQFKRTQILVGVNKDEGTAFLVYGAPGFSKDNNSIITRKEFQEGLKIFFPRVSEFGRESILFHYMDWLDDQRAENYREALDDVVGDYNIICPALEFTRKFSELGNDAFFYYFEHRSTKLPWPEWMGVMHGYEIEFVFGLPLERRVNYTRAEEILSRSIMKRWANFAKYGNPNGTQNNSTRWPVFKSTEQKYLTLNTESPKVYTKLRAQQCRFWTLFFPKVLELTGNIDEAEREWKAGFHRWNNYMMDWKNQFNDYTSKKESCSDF
Description: Inhibition of horse BChE at 2 mg/ml by Ellman's method

Molecule | inhibition [1] [%] | inhibition [2] [%]
CC1=NCCc2c1[nH]c1cc(O)ccc21 | 41.8 | 34.5
CN1CCc2cc3c(cc2[C@H]1[C@@H]1OC(=O)c2c1ccc1c2OCO1)OCO3 | 20.7 | 0.63
CCCC(=O)O[C@@H]1[C@@H](C)[C@@]2(O)[C@@H](C=C(CO)C[C@]3(O)C(=O)C(C)=C[C@@H]23)[C@@H]2C(C)(C)[C@]12OC(=O)CCC (stereo in doubt; form 2) | 19.5 | 5.87
COc1cc(/C=C/C(=O)c2ccc(O)cc2O)ccc1O | 26.5 | -0.11
CCC1=C[C@@H]2CN(C1)Cc1c([nH]c3ccccc13)[C@@](C(=O)OC)(c1cc3c(cc1OC)N(C)[C@H]1[C@@](O)(C(=O)OC)[C@H](OC(C)=O)[C@]4(CC)C=CCN5CC[C@]31[C@@H]54)C2 | -0.32 | 12.2
O=c1cc(-c2ccc(O)cc2)oc2c([C@@H]3O[C@H](CO)[C@@H](O)[C@H](O)[C@H]3O)c(O)cc(O)c12 | 3.3 | 2.26
C[C@@]12C(=O)OC(=O)[C@]1(C)[C@H]1CC[C@@H]2O1 | -7.81 | -2.13
Cc1nccc2c1[nH]c1cc(O)ccc12 | 46.1 | 35.9
C/C1=C\CC(C)(C)/C=C/C(=O)/C(C)=C/CC1 | -4.84 | 4.2
CC1=C[C@]23C(=O)[C@@H](C=C(COC(=O)c4ccccc4)[C@@H](O)[C@]2(O)[C@H]1OC(=O)c1ccccc1)[C@H]1[C@@H](C[C@H]3C)C1(C)C | -0.16 | 1
COc1cc2c(c3oc4cccc(O)c4c(=O)c13)[C@@H]1C=CO[C@@H]1O2 | 18.2 | -2.65
CC[C@@]1(O)C(=O)OCc2c1cc1n(c2=O)Cc2cc3cc(O)ccc3nc2-1 | -5.24 | 6.63
COc1cc2c(c(OC)c1OC)-c1ccc(OC)c(=O)cc1[C@@H](NC(C)=O)CC2 | 0.14 | 0.1
CCCCC1OC(=O)C2=CCCCC21 (configuration not stated) | -0.57 | 4.12
C/C=C1\CN2CC[C@]34C(=C(CC=O)[C@H]1C[C@H]23)Nc1ccccc14 | 21.1 | 12
O=C1C[C@@H](c2ccc(O)cc2)Oc2cc(O)cc(O)c21 | 7.24 | 0.68
O=C1C[C@@H]2OCC=C3CN4CC[C@]56c7ccccc7N1[C@H]5[C@H]2[C@H]3C[C@H]46 | 12.2 | 32.4
C[C@@H]1O[C@@H](O[C@H]2C(Oc3cc(O)c4c(=O)c(O)c(-c5ccc(O)cc5)oc4c3)O[C@H](CO)[C@@H](O)[C@@H]2O)[C@H](O)[C@H](O)[C@H]1O (some centres not stated) | 24.5 | -4.78
C[C@H]1[C@H]2CC[C@H]3[C@@H]4CC=C5C[C@@H](N(C)C)CC[C@]5(C)[C@H]4CC[C@]23CN1C | 29.9 | 45.2
C[N+]1([O-])[C@@H]2C[C@H](OC(=O)[C@H](CO)c3ccccc3)C[C@@H]1[C@H]1O[C@H]12 (some centres not stated) | -6.51 | -1.85
COc1ccc(/C=C/C(=O)c2c(O)cc(OC)cc2OC)cc1 | -6.03 | -9.95
CC[C@@]1(O)C(=O)OCc2c1cc1n(c2=O)Cc2cc3ccccc3nc2-1 | 14.1 | 3.9

Molecule | inhibition [1] [%] | inhibition [2] [%]
COc1cc2c(cc1OC)[C@H]1[C@@H](C)c3ccc(OC)c(OC)c3CN1CC2 | 13.9 | -0.53
O=c1c(O)c(-c2cc(O)c(O)c(O)c2)oc2cc(O)ccc12 | 15.7 | -7.22
COC1=C[C@@H](C)[C@@H]2C[C@H]3OC(=O)C[C@H]4C(C)=C(OC)C(=O)[C@H]([C@@]2(C)C1=O)[C@@]34C | 24.7 | 4.69
COc1cc2c(c(OC)c1OC)-c1ccc(OC)c(=O)cc1[C@@H](NC=O)CC2 | 23.9 | -0.59
C/C=C/C/C=C/CCC(=O)[C@H]1O[C@H]1C(N)=O | -4.02 | 3.38
COc1ccc2c(c1OC)C(=O)O[C@H]2[C@@H]1c2cc3c(cc2CCN1C)OCO3 | 9.75 | -1.4
CC[C@@H]1C(=O)OC[C@@H]1Cc1cncn1C | 20 | 1.99
COc1ccc2[nH]cc(CCNC(C)=O)c2c1 | 15.5 | 1.01
IVERMECTIN | 17.8 | -3.98
C[C@H]1C(=O)CC[C@@H]2[C@]1(C)CC[C@H]1[C@@]2(C)CC[C@@]2(C)[C@@H]3CC(C)(C)CC[C@]3(C)CC[C@]12C | -3.69 | -0.57
C/C=C1\C[C@@H](C)[C@](O)(CO)C(=O)OCC2=CCN3CC[C@@H](OC1=O)[C@@H]23 | 4.15 | -3.05
Cc1nccc2c1[nH]c1ccccc12 | 22.2 | 39.4
CC1=CC(=O)c2ccccc2C1=O | 17.8 | -1.75
CCOC(=O)C1=C[C@]2(CC)CCCN3CCc4c(n1c1ccccc41)[C@@H]32 | 12.3 | 29.1
COc1c2ccoc2cc2oc(=O)ccc12 | 21.3 | 10.3
CC[C@@H](C)[C@@H](O)[C@H](C)C(=O)[C@H](C)/C=C(\C)C[C@H](C)[C@@H]1OC(=O)[C@H]1CC | 2.88 | 99.8
CC1=C2C[C@H]3[C@@H](CC=C4C[C@@H](O)CC[C@@]43C)[C@@H]2CC[C@]12O[C@@H]1C[C@H](C)CN[C@H]1[C@H]2C | -3.81 | 5.84
COc1cc(-c2oc3cc(O)ccc3c(=O)c2O)ccc1O | 3.26 | 12.8
O=c1cc(-c2ccc(O)c(O)c2)oc2cc(O)cc(O)c12 | 13.6 | 0.42
COc1cc2c(c(OC)c1OC)-c1c(cc3c(c1O)OCO3)C[C@H](C)[C@](C)(O)[C@H]2OC(=O)c1ccccc1 | 5.31 | -0.32
COc1cccc2oc(-c3ccccc3)cc(=O)c12 | 37.5 | 18.3
Cc1cc2cc3c(C)cc(=O)oc3c(C)c2o1 | 14.3 | 2.42

Molecule | inhibition [1] [%] | inhibition [2] [%]
COC(=O)C1=CCCN(C)C1 | 16.9 | 0.29
CO[C@H]1C[C@@H]2CC[C@@H](C)[C@@](O)(O2)C(=O)C(=O)N2CCCC[C@H]2C(=O)O[C@H]([C@H](C)C[C@@H]2CC[C@@H](O)[C@H](OC)C2)CC(=O)[C@H](C)/C=C(\C)[C@@H](O)[C@@H](OC)C(=O)[C@H](C)C[C@H](C)/C=C/C=C/C=C/1C | 18.7 | 4.03
C=C[C@H]1CN2CC[C@H]1C[C@H]2[C@H](O)c1ccnc2ccccc12 | 3.63 | -0.03
Cc1c2oc3c(C)ccc(C(=O)N[C@@H]4C(=O)N[C@H](C(C)C)C(=O)N5CCC[C@H]5C(=O)N(C)CC(=O)N(C)[C@@H](C(C)C)C(=O)O[C@@H]4C)c3nc-2c(C(=O)N[C@@H]2C(=O)N[C@H](C(C)C)C(=O)N3CCC[C@H]3C(=O)N(C)CC(=O)N(C)[C@@H](C(C)C)C(=O)O[C@@H]2C)c(N)c1=O (I: T[dV]P[Sar][NMeV] / II: T[dV]P[Sar][NMeV]; ester I:1-I:C, II:1-II:C; linker I:N-II:N via Actinocin(9to1)) | -2.56 | 3.31
CN1C(=O)CC[C@H]1c1cccnc1 | 28.6 | -0.23
O=C1C[C@@H](c2ccc(O)c(O)c2)Oc2c1ccc(O[C@@H]1O[C@H](CO)[C@@H](O)[C@H](O)[C@H]1O)c2O | 8.08 | 3.1
CCCCC[C@H](O)/C=C/[C@H]1C=CC(=O)[C@@H]1CCCCCCC(=O)O | 15.3 | -1.82
COc1cc(/C=C/C(=O)O)ccc1O | -1.29 | -0.02
C=C[C@@](C)(O)CC[C@H]1C(=C)CC[C@H]2C(C)(C)CCC[C@]12C | 21.8 | 0.47
CN[C@@H]1[C@H](O)[C@H](NC)[C@H]2O[C@@]3(O)C(=O)C[C@@H](C)O[C@H]3O[C@@H]2[C@H]1O | 15 | -9.67
CN1C[C@H](CO)C[C@@H]2c3cccc4[nH]cc(c34)C[C@H]21 | 6.82 | 15.3
CC(C)[C@@]1(O)[C@@H](OC(=O)c2cc[nH]c2)[C@@]2(O)[C@]3(C)C[C@@]4(O)O[C@@]5([C@H](O)[C@@H](C)CC[C@]35O)[C@@]2(O)[C@@]41C | 21.7 | -2.13
CC[C@@H](C)C(=O)O[C@H]1[C@H](O)[C@H]2[C@@H](CN3C[C@@H](C)CC[C@H]3[C@@]2(C)O)[C@@H]2C[C@]34O[C@]5(O)[C@@H](OC(=O)[C@](C)(O)[C@@H](C)O)CC[C@@]3(C)[C@@H]5[C@@H](OC(C)=O)[C@@H](OC(C)=O)[C@H]4[C@@]21O | -5.22 | -0.35
C=C1C[C@]23C[C@@]1(O)CC[C@H]2[C@@]12C=C[C@H](O)[C@@](C)(C(=O)O1)[C@H]2[C@@H]3C(=O)O | -1.11 | -5.65
O=[N+]([O-])c1ncc[nH]1 | 4.77 | 14.4
C[C@@H]1C(=O)O[C@H]2[C@H](O)[C@@]34[C@H]5C[C@@H](C(C)(C)C)[C@]36[C@@H](OC(=O)[C@@H]6O)O[C@@]4(C(=O)O5)[C@@]12O | -7.35 | 9.99
CC(C)=CCC[C@]1(C)C=Cc2c(O)c3c(c(CC=C(C)C)c2O1)O[C@]12C(=C[C@@H]4C[C@H]1C(C)(C)O[C@@]2(C/C=C(/C)C(=O)O)C4=O)C3=O | 1.17 | 8.47
C[C@@H]1O[C@@H](O[C@H]2[C@H](Oc3cc(O)c4c(=O)cc(-c5ccc(O)cc5)oc4c3)O[C@H](CO)[C@@H](O)[C@@H]2O)[C@H](O)[C@H](O)[C@H]1O | 27.2 | -2.37
C=C1[C@@H](C)[C@H]2[C@H](Cc3ccccc3)NC(=O)[C@]23OC(=O)/C=C/[C@H](O)CCC[C@@H](C)C/C=C/[C@H]3[C@@H]1O | -2.03 | 8.94
COc1cc(C2Oc3cc([C@H]4Oc5cc(O)cc(O)c5C(=O)[C@@H]4O)ccc3OC2CO)ccc1O (some centres not stated) | 7.08 | -7.94
O=C(/C=C/c1ccc(O)c(O)c1)c1ccc(O)cc1O | 10.1 | -0.63
CCCCC[C@H](O)/C=C/[C@@H]1[C@@H](C/C=C\CCCC(=O)O)[C@@H](O)C[C@H]1O | 12.9 | 5.03
